Reference: patent US4746675A, “External pharmaceutical composition” (Teijin Limited, priority 1983, dated 1988)

What was measured:
[1] = test system: carrageenan edema; assay: carrageenan edema inhibiting effect of betamethasone valerate ointments; format: in vivo, rat; conditions: Table 5, betamethasone valerate ointment with penetration enhancer
Experimental: An ointment was prepared from 0.15 part by weight of betamethasone valerate, 9.85 parts by weight of compound (168) and 90 parts by weight of the hydrophilic ointment.
In accordance with the method of R. Passarella et al. [Argneim. Forsch 30, (I), Nr. 4, 647-651 (1980)], the carrageenan edema inhibiting effect of the above ointment was examined. Specifically, 0.1 ml of a 1% carrageenan suspension in 0.9% NaCl solution was injected into the tip of the right leg of a rat (body weight 150-175 g). The foot volume was measured immediately after administration of carrageenan and 3, 5, and 6 hours after the administration by means of a mercury displacement device. 0.5, 1 and 2 hours after the administration of carrageenan, 100 mg of the ointment was well […] into each of the sites which underwent inflammation.
Various ointments were prepared from 0.15 part by weight of betamethasone valerate, […] of the various penetration enhancers shown in Table 5, and 85 parts by weight of the hydrophilic ointment, and tested in the same way as in Example 23.

[2] = test system: eye (cornea, iris, conjunctiva); assay: primary eye irritation (Draize) in rabbits; format: in vivo, white native male rabbits; conditions: average of three rabbits
Experimental: enhancers of this invention shown in Table 17 was applied dropwise to one eye of white native male rabbits (body weight 2.0 to 3.0 kg; 3 per group) which, it had been ascertained, were free from any trouble at the cornea, iris and conjunctiva. Nothing was applied to the other eye. Thus, irritation of the absorption aid to the mucous membrane of the eyes were examined, and scores were calculated in accordance with the Draize's eye irritation evaluating method [Association of Foods, "Drugs and Cosmetics" (1957)].
As a control, sodium laurylsulfate, a kind of surface-active agent, was evaluated in the same way, and the results are also shown in Table 17.

Compound: CCC=CCCCCCCCCOCC(O)COC(=O)[C@@H]1CCC(=O)N1 (stereo partly shown) [Compound (134), 3-(9-dodecenyloxy)-2-hydroxy-1-pyroglutamyloxypropane]
- Percentage inhibition vs. control ([1]; 3 hrs): 16.4%
- Percentage inhibition vs. control ([1]; 5 hrs): 30.3%
- Percentage inhibition vs. control ([1]; 6 hrs): 34.2%
- Primary irritation score, Conjunctiva ([2]; 2.4% soln, 1 hour): 3.3
- Primary irritation score, Cornea ([2]; 2.4% soln, 1 hour): 0
- Primary irritation score, Iris ([2]; 2.4% soln, 1 hour): 0
- Primary irritation score, Total ([2]; 2.4% soln, 1 hour): 3.3
- Primary irritation score, Conjunctiva ([2]; 2.4% soln, 3 hours): 1.3
- Primary irritation score, Cornea ([2]; 2.4% soln, 3 hours): 0
- Primary irritation score, Iris ([2]; 2.4% soln, 3 hours): 0
- Primary irritation score, Total ([2]; 2.4% soln, 3 hours): 1.3
- Primary irritation score, Conjunctiva ([2]; 2.4% soln, 6 hours): 1.3
- Primary irritation score, Cornea ([2]; 2.4% soln, 6 hours): 0
- Primary irritation score, Iris ([2]; 2.4% soln, 6 hours): 0
- Primary irritation score, Total ([2]; 2.4% soln, 6 hours): 1.3
- Primary irritation score, Conjunctiva ([2]; 2.4% soln, 24 hours): 0
- Primary irritation score, Cornea ([2]; 2.4% soln, 24 hours): 0
- Primary irritation score, Iris ([2]; 2.4% soln, 24 hours): 0
- Primary irritation score, Total ([2]; 2.4% soln, 24 hours): 0
- Primary irritation score, Conjunctiva ([2]; 2.4% soln, 48 hours): 0
- Primary irritation score, Cornea ([2]; 2.4% soln, 48 hours): 0
- Primary irritation score, Iris ([2]; 2.4% soln, 48 hours): 0
- Primary irritation score, Total ([2]; 2.4% soln, 48 hours): 0
- Primary irritation score, Conjunctiva ([2]; 2.4% soln, 72 hours): 0
- Primary irritation score, Cornea ([2]; 2.4% soln, 72 hours): 0
- Primary irritation score, Iris ([2]; 2.4% soln, 72 hours): 0
- Primary irritation score, Total ([2]; 2.4% soln, 72 hours): 0
- Primary irritation score, Conjunctiva ([2]; 2.4% soln, 96 hours): 0
- Primary irritation score, Cornea ([2]; 2.4% soln, 96 hours): 0
- Primary irritation score, Iris ([2]; 2.4% soln, 96 hours): 0
- Primary irritation score, Total ([2]; 2.4% soln, 96 hours): 0
- Primary irritation score, Conjunctiva ([2]; 2.4% soln, 168 hours): 0
- Primary irritation score, Cornea ([2]; 2.4% soln, 168 hours): 0
- Primary irritation score, Iris ([2]; 2.4% soln, 168 hours): 0
- Primary irritation score, Total ([2]; 2.4% soln, 168 hours): 0

Compound: CCCCCCCCCCCCOCC(O)COC(=O)[C@@H]1CCC(=O)N1 (stereo partly shown) [Compound (108), 3-dodecyloxy-2-hydroxy-1-pyroglutamyloxypropane]
- Percentage inhibition vs. control ([1]; 3 hrs): 20.1%
- Percentage inhibition vs. control ([1]; 5 hrs): 36.7%
- Percentage inhibition vs. control ([1]; 6 hrs): 36.7%
- Primary irritation score, Conjunctiva ([2]; 0.8% soln, 1 hour): 2.0
- Primary irritation score, Cornea ([2]; 0.8% soln, 1 hour): 0
- Primary irritation score, Iris ([2]; 0.8% soln, 1 hour): 0
- Primary irritation score, Total ([2]; 0.8% soln, 1 hour): 2.0
- Primary irritation score, Conjunctiva ([2]; 0.8% soln, 3 hours): 2.0
- Primary irritation score, Cornea ([2]; 0.8% soln, 3 hours): 0
- Primary irritation score, Iris ([2]; 0.8% soln, 3 hours): 0
- Primary irritation score, Total ([2]; 0.8% soln, 3 hours): 2.0
- Primary irritation score, Conjunctiva ([2]; 0.8% soln, 6 hours): 1.3
- Primary irritation score, Cornea ([2]; 0.8% soln, 6 hours): 0
- Primary irritation score, Iris ([2]; 0.8% soln, 6 hours): 0
- Primary irritation score, Total ([2]; 0.8% soln, 6 hours): 1.3
- Primary irritation score, Conjunctiva ([2]; 0.8% soln, 24 hours): 0
- Primary irritation score, Cornea ([2]; 0.8% soln, 24 hours): 0
- Primary irritation score, Iris ([2]; 0.8% soln, 24 hours): 0
- Primary irritation score, Total ([2]; 0.8% soln, 24 hours): 0
- Primary irritation score, Conjunctiva ([2]; 0.8% soln, 48 hours): 0
- Primary irritation score, Cornea ([2]; 0.8% soln, 48 hours): 0
- Primary irritation score, Iris ([2]; 0.8% soln, 48 hours): 0
- Primary irritation score, Total ([2]; 0.8% soln, 48 hours): 0
- Primary irritation score, Conjunctiva ([2]; 0.8% soln, 72 hours): 0
- Primary irritation score, Cornea ([2]; 0.8% soln, 72 hours): 0
- Primary irritation score, Iris ([2]; 0.8% soln, 72 hours): 0
- Primary irritation score, Total ([2]; 0.8% soln, 72 hours): 0
- Primary irritation score, Conjunctiva ([2]; 0.8% soln, 96 hours): 0
- Primary irritation score, Cornea ([2]; 0.8% soln, 96 hours): 0
- Primary irritation score, Iris ([2]; 0.8% soln, 96 hours): 0
- Primary irritation score, Total ([2]; 0.8% soln, 96 hours): 0
- Primary irritation score, Conjunctiva ([2]; 0.8% soln, 168 hours): 0
- Primary irritation score, Cornea ([2]; 0.8% soln, 168 hours): 0
- Primary irritation score, Iris ([2]; 0.8% soln, 168 hours): 0
- Primary irritation score, Total ([2]; 0.8% soln, 168 hours): 0
